This note sets out measurements from article PMC5766510, “Development of a PET radioligand for potassium channels to image CNS demyelination” (Scientific Reports, 2018).

Where two headings read alike, the source gives them in different places.

Data set [1] concerns voltage-gated K^+ channels in demyelinated axons. It counts as in vivo. The text has this: Thirty minutes post-injection of the radiolabeled drug, the mice were euthanized and their brains dissected without perfusion to prevent washout of the drug. After dissection, the brains were frozen, cut into thin sections and collected on glass slides. The brain slices were then apposed to autoradiography film to reveal the distribution of the drug in the brain at the time of death. After autoradiography, the same brain sections were stained with the myelin-specific dye Luxol fast blue (LFB).
Number of animals per group was determined using statistical power analysis (α = 0.05, power = 0.80). […] The brains were embedded in Optimal Cutting Temperature (Tissue-Tek), frozen in dry ice and stored at −80 °C. Frozen brains were sliced in a cryostat at 20 μm thickness, the sections mounted on Superfrost Plus slides (Fisher) and allowed to dry at room temperature for at least 30 min. Next, the slides were placed in a cassette in front of autoradiography film (Denville scientific) sealed in the dark at −80 °C for 14–21 days. After that time the cassette was allowed to warm up to room temperature and the films developed inside a dark room using a film processor (Konica). The films were then scanned using an EPSON Perfection V750 scanner (Positive film mode, 8-bit grayscale, 1,200 dpi). After digitizing the radiographs, the same slides were stained using Luxol fast blue (LFB) and cresyl violet. For [^18F]3-F-4-AP autoradiography in rats we injected 1–2 μCi per g. After euthanasia, the brains were dissected without perfusion, frozen in dry ice and sliced in a cryostat at −20 °C.
1 min) and left in LFB solution (0.1 g LFB, 100 mL of 95% EtOH, 0.5 mL glacial acetic acid) overnight at 56 °C. Next morning, the slides were rinsed in 95% EtOH and ddH2O to remove the excess of dye, differentiated in lithium carbonate solution (0.05 g in 100 mL) for 30 s, 70% EtOH for 30 s and rinsed in ddH2O. The differentiation steps were repeated until the gray matter was clear and the white matter appeared blue and sharply defined. Afterwards, the slides were counterstained in cresyl violet (0.1 g in 100 mL of ddH2O, 0.1 mL acetic acid) for 30 s. The slides were differentiated in 95 % EtOH for 5 min and dehydrated (100% EtOH, 2x 5 min ea; 100 % xylene, 2 x, 5 min ea) before mounting with permount (Electron Microscopy Sciences). After staining, images of the slides were collected using the CRi Pannoramic Whole Slide Scanner (Perkin Elmer) equipped with a 20x objective.
Image analysis: The histology images were superimposed on the autoradiography images using Photoshop. The histology images were used to precisely outline the corpus callosum, the cortex and a ~1.5 mm-wide area around the brain (background). The autoradiographic signal from each area was quantified. The background signal was subtracted from the all the areas and defined as zero. The signal intensity of the cortex was set as 1.0 and the signal intensity of the corpus callosum was measured relative to the cortex. Color images were created using the 6-shades look up table (LUT) in ImageJ. […]

Data set [2] relates to K^+ channels in explanted mouse optic nerves. In words: Compound action potential (CAP) of dissected mouse optic nerves. The note with it: for activity in enhancing the CAP / IC50: dysmyelinated (Shiverer) optic nerves; for IC50: CAP enhancement, given as IC50; for times less potent: from EC50 values, versus 4-AP and 3-F-4-AP. As for the experimental part:
Therefore, we tested the effects of these compounds on the compound action potential (CAP) of dysmyelinated optic nerves from control and Shiverer mice (Fig. 2E).
Optic nerves were dissected from 12–16 week old Shiverer (Mbp^shi/shi) and control mice (Mbp^+/shi and Mbp^+/+). Compound action potentials (CAP) were recorded using suction electrodes as described by Stys et al.[91]. See SI for additional details.
(§1) CI95 = [Upper Limit. Lower Limit]; where Upper Limit = 10^(logEC50+s.d.) and Lower Limit = 10^(logEC50−s.d.). […]
Dissection of optic nerves: Optic nerves were dissected from 12-16 week old Shiverer (Mbpshi/shi) and control mice (Mbp+/shi and Mbp+/+). Mice were euthanized by CO2 overdose and the optic nerves were quickly dissected between the eyeball and the optic chiasm. The nerves […]
Optic nerve electrophysiology: Compound action potentials (CAP) from dysmyelinated nerves (Shiverer mice, Mbpshi/shi) and myelinated nerves (litermate controls, Mbp+/shi and Mbp+/+) were […]
between two suction electrodes (stimulus and recording electrodes) forming a tight seal on each end. Two additional electrodes were placed in the bath for reference. A supramaximal pulse (250 mV, 20 μs) was applied at the stimulating end of the nerve. The resulting CAP was amplified from the recording electrode using a high impedance low-noise amplifier (EG&G Princeton Applied Research Corporation) sampled at 100 kHz and filtered at 10 kHz. To assess […]
concentrations to the recording chamber after the CAP was allowed to stabilize for 5 min while […]
pulsing repeatedly. After each measurement, the chamber was washed for 5 min (flow 1 […]
mL/min) with oxygenated aCSF. […]
conduction and the temperature was monitored throughout the experiment. CAP recordings were acquired with a SBC6711 board (Innovative Integration) controlled by in-house written software. Analysis of the traces was done using an in-house software. The half-maximal […]
amplitude vs. concentration and fitted to the Hill equation using Origin. […]
Compound action potential of nerve recorded by suction electrode: a theoretical and experimental analysis. […]

The target in data set [3] is non-inactivating Shaker channel from D. melanogaster (Drosophila melanogaster, UniProt P08510, DEL6-46). Nature of the data set: cell-based. As for the experimental part:
See SI for additional details.
as §1
exchanging the external solution (top and guard chambers) several times. After application, cells were voltage-clamped at least 5 min at 0mV, then voltage-clamped at -80mV for 1-2 min.
K+ currents were generated by applying series of 50 ms pulses from -70 mV to +40 mV in increments of 10 mV. The effect of the drug was assessed by measuring the relative intensity of the K+ current before and after applying varying drug concentration at a constant voltage (typically +20 mV) and at the end of the test-pulse. Data acquisition and analysis of the traces was performed using Gpatch software (Department of Anesthesiology, University of California, […]
Los Angeles). […]

Data set [4] has as its system C57Bl/6 J mice. In words: In vivo effects (signs of neuroexcitation) after intraperitoneal injection. Particulars: mouse, different doses. The procedure: In this experiment, we injected each drug intraperitoneally at different concentrations into mice and looked for signs of neuroexcitation (Fig. 3B).
10-week-old female C57Bl/6 J mice were given an intraperitoneal injection of the drug under investigation and monitored continuously for 4 h. […] At least 72 h passed between injections to the same mice.

Data set [5] is described as follows: in vitro. Particulars: mouse, microsomes.
Setting [6] is: relative K^+ current at +20 mV, Hill equation fit, read-out: Half-maximal inhibitory concentration (IC50).

Sequence of non-inactivating Shaker channel from D. melanogaster (P08510 other isoform, or with tags, fused parts or gaps DEL6-46): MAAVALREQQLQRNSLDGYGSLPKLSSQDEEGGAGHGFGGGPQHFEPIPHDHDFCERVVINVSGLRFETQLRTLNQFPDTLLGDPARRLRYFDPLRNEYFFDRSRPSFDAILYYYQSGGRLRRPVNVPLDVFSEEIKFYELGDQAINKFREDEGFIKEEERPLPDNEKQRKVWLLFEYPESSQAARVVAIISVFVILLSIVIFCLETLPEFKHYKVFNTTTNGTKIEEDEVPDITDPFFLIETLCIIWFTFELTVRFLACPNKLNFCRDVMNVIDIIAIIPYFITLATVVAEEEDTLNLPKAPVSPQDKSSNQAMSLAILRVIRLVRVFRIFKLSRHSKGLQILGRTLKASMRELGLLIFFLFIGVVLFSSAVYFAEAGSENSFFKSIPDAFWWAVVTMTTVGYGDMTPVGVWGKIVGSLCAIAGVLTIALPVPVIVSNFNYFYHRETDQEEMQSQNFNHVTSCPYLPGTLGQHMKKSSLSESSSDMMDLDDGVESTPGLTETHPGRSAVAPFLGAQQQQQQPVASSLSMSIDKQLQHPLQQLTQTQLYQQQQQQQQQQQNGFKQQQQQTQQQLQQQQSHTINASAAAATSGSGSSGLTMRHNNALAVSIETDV

Take `O=[14CH]C[C@@H](O)[C@H](O)[C@H](O)CO` [2-DG, [1-^14C]2-deoxy-D-glucose, reference compound]: the “difference in brain distribution between wild type and Shiverer mice” value in data set [1] (mouse, in vivo) is listed as “no differences were seen”.

`Nc1ccnc(F)c1` [2-F-4-AP, 2-fluoro-4-aminopyridine]: the “activity in enhancing the CAP” value in data set [2] was “inactive”. Further, in data set [3] (setting [6]), the IC50 is more than 10 mM. The “signs of neuroexcitation, summary in words relative to 4-AP” value (“signs … in words relative to 4-AP” below) in data set [4] was “did not cause any effects at doses up to 20 times greater”.

Consider `Nc1ccncc1CCF` [3-FEt-4-AP, 3-fluoroethyl-4-aminopyridine], for which the “activity in enhancing the CAP” value in data set [2] is “inactive”. Moreover, in data set [3], the IC50 is more than 10 mM.

For the compound `Nc1ccncc1CF` [3-FMe-4-AP, 3-fluoromethyl-4-aminopyridine], the IC50 in data set [2] came to 0.386 mM; in data set [3] (setting [6]), 7.45 mM. The times less potent in data set [2] is recorded as 4–6 times. Besides, the “signs … in words relative to 4-AP” value in data set [4] is reported as “half as potent as 4-AP”.

On to `Nc1ccncc1CO` [3-HOMe-4-AP, 3-hydroxymethyl-4-aminopyridine, reference compound], for which the IC50 came to 0.386 mM in data set [2] and 4.38 mM in data set [3]. For the same compound, the times less potent in data set [2] is 4–6 times. The “signs … in words relative to 4-AP” value in data set [4] is “did not cause any effects at doses up to 20 times greater”.

In the case of `CC(C)NCC(O)COc1cccc2ccccc12` (centres unmarked) [Propranolol, propranolol], in data set [5], the half-life (usually how long it takes for the measured level to halve) is 25.6 ± 2.1 min.

Regarding `Nc1c[14cH]n[14cH]c1F` [[^14C]3-F-4-AP, [2,6-^14C]4-amino-3-fluoropyridine], the “relative autoradiographic signal intensity in corpus callosum” value in data set [1] (Shiverer (Mbp^shi/shi) mice, normalized to cortex) came out at 0.878 ± 0.043. Also, the “increase in signal, Shiverer versus control white matter” value in data set [1] (corpus callosum) is 29%. Also, the “relative autoradiographic signal intensity in myelinated white matter” value in data set [1] (wild-type/control mice, normalized to cortex (gray matter = 1.0)) came to 0.679 ± 0.046.

As to `Nc1c[14cH]n[14cH]c1` [[^14C]4-AP, [2,6-^14C]4-aminopyridine, reference compound], in data set [1] (LPC-injected mice, 3 days after injection, normalized to cortex), the “autoradiographic signal in the demyelinated area” value amounted to 0.733 ± 0.047. Also, in data set [1] (LPC-injected mice, opposite hemisphere, normalized to cortex), the “autoradiographic signal in the contralateral control area” value was determined as 0.507 ± 0.070.
